Earlier results as cited in patent US20110104281A1, “METHOD FOR TREATING PAIN USING A SUBSTITUTED 2-AMINOTETRALIN COMPOUND” (UCB PHARMA GMBH, priority 2006, published 2011).

What was measured:
[1] = target: α2B receptor (Homo sapiens, UniProt P18089); conditions: cited from earlier work
[2] = target: 5-HT1A receptor (Homo sapiens, UniProt P08908); conditions: cited from earlier work
[3] = target: D1 receptor (Homo sapiens, UniProt P21728); conditions: cited from earlier work
[4] = target: 5-HT7 (Homo sapiens, UniProt P34969); conditions: cited from earlier work
[5] = target: α2C (Homo sapiens, UniProt P18825); conditions: cited from earlier work
[6] = tested on: fibromyalgia patients; conditions: preliminary clinical studies; cited from earlier work
[7] = target: D3 receptor (Homo sapiens, UniProt P35462); conditions: cited from earlier work
D3 receptor, sequence (P35462 whole entry): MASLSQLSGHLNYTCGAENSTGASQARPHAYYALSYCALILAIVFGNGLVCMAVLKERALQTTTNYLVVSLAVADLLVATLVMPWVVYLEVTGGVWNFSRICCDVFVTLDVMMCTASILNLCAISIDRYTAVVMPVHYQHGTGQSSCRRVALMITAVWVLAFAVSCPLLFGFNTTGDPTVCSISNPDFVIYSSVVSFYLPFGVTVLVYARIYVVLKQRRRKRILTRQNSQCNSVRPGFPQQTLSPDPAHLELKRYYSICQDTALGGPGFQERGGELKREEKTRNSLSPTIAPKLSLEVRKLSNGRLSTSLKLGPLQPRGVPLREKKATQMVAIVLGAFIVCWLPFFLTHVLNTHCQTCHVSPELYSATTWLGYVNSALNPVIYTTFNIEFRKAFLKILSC

5-HT1A receptor, sequence (P08908 whole entry): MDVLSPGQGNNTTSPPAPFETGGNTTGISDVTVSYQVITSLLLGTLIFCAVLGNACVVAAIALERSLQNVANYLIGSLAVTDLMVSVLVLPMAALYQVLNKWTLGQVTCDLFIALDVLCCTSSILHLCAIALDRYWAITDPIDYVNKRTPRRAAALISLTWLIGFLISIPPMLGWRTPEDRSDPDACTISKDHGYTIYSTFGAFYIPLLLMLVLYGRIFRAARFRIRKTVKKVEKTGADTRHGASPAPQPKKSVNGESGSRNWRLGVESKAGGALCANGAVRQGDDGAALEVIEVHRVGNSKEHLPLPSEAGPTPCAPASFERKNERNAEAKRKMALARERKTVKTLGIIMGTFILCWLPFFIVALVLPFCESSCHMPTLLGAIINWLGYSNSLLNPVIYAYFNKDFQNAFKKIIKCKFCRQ
5-HT7, sequence (P34969 whole entry, species assumed): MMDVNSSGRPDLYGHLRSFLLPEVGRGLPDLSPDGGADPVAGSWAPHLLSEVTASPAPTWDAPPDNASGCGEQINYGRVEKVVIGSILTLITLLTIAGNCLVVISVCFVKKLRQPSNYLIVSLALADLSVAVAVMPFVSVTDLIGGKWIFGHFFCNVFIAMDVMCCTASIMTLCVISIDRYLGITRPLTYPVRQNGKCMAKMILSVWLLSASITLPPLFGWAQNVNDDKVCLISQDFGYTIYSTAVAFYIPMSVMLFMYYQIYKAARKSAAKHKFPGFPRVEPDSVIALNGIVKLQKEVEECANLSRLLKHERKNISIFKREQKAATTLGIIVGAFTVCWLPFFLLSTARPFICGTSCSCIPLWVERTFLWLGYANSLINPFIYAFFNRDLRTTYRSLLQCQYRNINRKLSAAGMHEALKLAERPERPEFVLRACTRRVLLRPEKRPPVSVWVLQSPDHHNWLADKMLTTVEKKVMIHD
α2B receptor, sequence (P18089 whole entry): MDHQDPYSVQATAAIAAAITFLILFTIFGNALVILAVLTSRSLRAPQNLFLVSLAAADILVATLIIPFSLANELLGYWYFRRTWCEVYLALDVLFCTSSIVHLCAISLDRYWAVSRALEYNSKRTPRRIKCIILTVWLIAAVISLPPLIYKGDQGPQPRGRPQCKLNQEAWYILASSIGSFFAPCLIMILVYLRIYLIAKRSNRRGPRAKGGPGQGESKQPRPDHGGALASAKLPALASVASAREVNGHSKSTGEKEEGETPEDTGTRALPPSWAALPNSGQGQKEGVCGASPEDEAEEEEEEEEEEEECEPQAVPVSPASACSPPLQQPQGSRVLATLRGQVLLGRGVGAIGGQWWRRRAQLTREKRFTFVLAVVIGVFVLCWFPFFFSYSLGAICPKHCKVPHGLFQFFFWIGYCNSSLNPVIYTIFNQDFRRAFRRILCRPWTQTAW
D1 receptor, sequence (P21728 whole entry): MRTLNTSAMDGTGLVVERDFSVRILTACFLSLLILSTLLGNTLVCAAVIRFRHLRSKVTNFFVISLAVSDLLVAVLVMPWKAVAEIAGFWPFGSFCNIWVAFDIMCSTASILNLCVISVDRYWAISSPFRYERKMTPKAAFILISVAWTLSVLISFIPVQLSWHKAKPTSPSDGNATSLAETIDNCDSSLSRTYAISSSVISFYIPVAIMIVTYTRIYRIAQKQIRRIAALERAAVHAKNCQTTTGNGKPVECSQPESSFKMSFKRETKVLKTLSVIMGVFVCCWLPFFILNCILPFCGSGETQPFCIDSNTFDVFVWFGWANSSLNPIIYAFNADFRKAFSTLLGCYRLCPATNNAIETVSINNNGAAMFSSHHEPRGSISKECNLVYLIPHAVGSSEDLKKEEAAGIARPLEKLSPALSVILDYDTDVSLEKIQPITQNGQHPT
α2C, sequence (P18825 whole entry): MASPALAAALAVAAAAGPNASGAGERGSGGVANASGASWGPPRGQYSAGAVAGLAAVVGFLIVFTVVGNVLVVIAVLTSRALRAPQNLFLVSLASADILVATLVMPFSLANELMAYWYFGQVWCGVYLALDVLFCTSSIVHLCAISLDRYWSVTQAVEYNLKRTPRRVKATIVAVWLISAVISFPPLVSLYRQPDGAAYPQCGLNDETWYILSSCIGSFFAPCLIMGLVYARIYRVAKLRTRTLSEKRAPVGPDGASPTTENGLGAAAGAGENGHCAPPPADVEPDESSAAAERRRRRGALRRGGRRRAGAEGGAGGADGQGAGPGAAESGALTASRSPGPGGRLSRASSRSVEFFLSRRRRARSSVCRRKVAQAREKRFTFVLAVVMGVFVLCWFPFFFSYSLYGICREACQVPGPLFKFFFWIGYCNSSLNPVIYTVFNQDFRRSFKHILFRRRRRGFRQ

Row | SMILES | Affinity / action at α2B receptor [1] | Affinity / action at 5-HT1A receptor [2] | Affinity for D1 receptor [3] | Affinity for 5-HT7 [4] | Affinity for α2C [5] | Pain in fibromyalgia patients [6] | Affinity for D3 receptor [7]
1 | CCCN[C@H]1CCc2nc(N)sc2C1 [Pramipexole] | only weak or no affinity | only weak or no affinity | only weak or no affinity | only weak or no affinity | only weak or no affinity | shown to reduce pain | strongest affinity for D3
2 | CCCN(CCC)CCc1cccc2c1CC(=O)N2 [ropinirole] | only weak or no affinity | only weak or no affinity | only weak or no affinity | only weak or no affinity | only weak or no affinity | shown to reduce pain | strongest affinity for D3
